Patent US20040076974A1, “Liver necrosis predictive genes” (priority 2002, published 2004)
Read-outs that look alike come from different tables or passages of the source.

Test system: Sprague Dawley rats
Method: Sprague Dawley rats Crl:CD from Charles River, Raleigh, N.C. were divided into treated rats that receive a specific concentration of the compound (see Table 1) and. control rats that only received the vehicle in which the compound is mixed (e.g., saline).
At specified timepoints (6 h, 24 h and 72 h) after administration (intraperitoneal route) of the compound, a set number of rats (usually 3 control and 3 treated) were euthanized and tissues collected. Each, rat was heavily sedated with an overdose of CO2 by inhalation and a maximum amount of blood drawn. Exsanguination of the rat by this drawing of blood kills the rat. The method of collecting the tissues is very important and ensures preserving the quality of the mRNA in the tissues. The body of the rat was then opened up and prosectors rapidly removed the tissues (including) and immediately placed them into liquid nitrogen. […] The organs/tissues were then packaged into well-labeled plastic freezer quality bags and stored at −80 degrees until needed for isolation of the mRNA from a portion of the organ/tissue sample.
Histopathology scores for each animal (assigned on a compound-dose basis as indicated in Table 1) were entered with gene expression data by using the GeneSpring™ ‘Drawn Gene’ function. Correlations between the histopathology scores and gene expression were conducted with the distance measures listed below:
Toxicity classifications were entered for training and test set as a parameter column. Toxicity, as defined by observation of necrosis in the at 72 hours after treatment, was entered as a “yes” or “no” for each animal in a compound-dose group. Additionally, a parameter column for random histopathology classification was designated. This was done by randomly assigning the same number of “yes” and “no” calls to the individual animals.

[1] = Sprague Dawley, rat, in vivo, ip, 50 mg/kg, 72 h
[2] = Sprague Dawley, rat, in vivo, ip, 200 mg/kg, 72 h

Nc1nc(O)c2ncn(COC(CO)CO)c2n1 [gancyclovir]
Score (histopathology liver necrosis severity score) [1]: 1 | Score (histopathology liver necrosis severity score) [2]: 1 | Liver Toxicity Necrosis Classification (rat, in vivo): no | Liver Necrosis (rat, in vivo, ip, 50 mg/kg): no | Liver Necrosis (rat, in vivo, ip, 200 mg/kg): no

NC(=O)NO [hydroxyurea]
Score (histopathology liver necrosis severity score) (Sprague Dawley, rat, in vivo, ip, 250 mg/kg, 72 h): 1 | Score (histopathology liver necrosis severity score) (Sprague Dawley, rat, in vivo, ip, 1000 mg/kg, 72 h): 1 | Liver Toxicity Necrosis Classification (rat, in vivo): no | Liver Necrosis (rat, in vivo, ip, 250 mg/kg): no | Liver Necrosis (rat, in vivo, ip, 1000 mg/kg): no

NNC(=O)c1ccncc1 [isoniazid]
Score (histopathology liver necrosis severity score) [1]: 1 | Score (histopathology liver necrosis severity score) [2]: 1 | Liver Toxicity Necrosis Classification (rat, in vivo): no | Liver Necrosis (rat, in vivo, ip, 50 mg/kg): no | Liver Necrosis (rat, in vivo, ip, 200 mg/kg): no

CC(=O)N1CCN(c2ccc(OCC3COC(Cn4ccnc4)(c4ccc(Cl)cc4Cl)O3)cc2)CC1 (stereo not drawn) [ketoconazole]
Score (histopathology liver necrosis severity score) (Sprague Dawley, rat, in vivo, ip, 20 mg/kg, 72 h): 1 | Score (histopathology liver necrosis severity score) (Sprague Dawley, rat, in vivo, ip, 80 mg/kg, 72 h): 1 | Liver Toxicity Necrosis Classification (rat, in vivo): no | Liver Necrosis (rat, in vivo, ip, 20 mg/kg): no | Liver Necrosis (rat, in vivo, ip, 80 mg/kg): no

CN(Cc1cnc2nc(N)nc(N)c2n1)c1ccc(C(=O)N[C@@H](CCC(=O)O)C(=O)O)cc1 [methotrexate]
Score (histopathology liver necrosis severity score) (Sprague Dawley, rat, in vivo, ip, 5 mg/kg, 72 h): 1 | Liver Toxicity Necrosis Classification (rat, in vivo): no | Liver Necrosis (rat, in vivo, ip, 5 mg/kg): no

C=CCN1CC[C@]23c4c5ccc(O)c4O[C@H]2C(=O)CC[C@@]3(O)[C@H]1C5 [naloxone]
Liver Toxicity Necrosis Classification (rat, in vivo): no | Score (histopathology liver necrosis severity score) (rat, in vivo, ip): 1 | Liver Necrosis (rat, intraperitoneal, dose 180 mg/kg, 72 hours after treatment): no | Score (histopathology liver necrosis severity score) (rat, intraperitoneal, dose 180 mg/kg, 72 hours; 1 = not remarkable, 2 and higher increasing severity): 1 | Liver Necrosis (rat, intraperitoneal, dose 45 ml/kg, 72 hours after treatment): no

COc1ccc(C[C@H](N)C(=O)N[C@H]2[C@@H](O)[C@H](n3cnc4c(N(C)C)ncnc43)O[C@@H]2CO)cc1 [puromycin]
Score (histopathology liver necrosis severity score) (Sprague Dawley, rat, in vivo, ip, 38 mg/kg, 72 h): 1 | Score (histopathology liver necrosis severity score) (Sprague Dawley, rat, in vivo, ip, 150 mg/kg, 72 h): 1 | Liver Toxicity Necrosis Classification (rat, in vivo): no | Liver Necrosis (rat, in vivo, ip, 38 mg/kg): no | Liver Necrosis (rat, in vivo, ip, 150 mg/kg): no

C=C[C@H]1C[N@@]2CC[C@H]1C[C@@H]2[C@@H](O)c1ccnc2ccc(OC)cc12 [quinidine]
Liver Necrosis (rat, intraperitoneal, dose 25 mg/kg, 72 hours after treatment): no | Score (histopathology liver necrosis severity score) (rat, intraperitoneal, dose 25 mg/kg, 72 hours; 1 = not remarkable, 2 and higher increasing severity): 1 | Liver Necrosis (rat, intraperitoneal, dose 100 mg/kg, 72 hours after treatment): no | Score (histopathology liver necrosis severity score) (rat, intraperitoneal, dose 100 mg/kg, 72 hours; 1 = not remarkable, 2 and higher increasing severity): 1

Cn1c(=O)c2[nH]cnc2n(C)c1=O [theophylline]
Score (histopathology liver necrosis severity score) (Sprague Dawley, rat, in vivo, ip, 25 mg/kg, 72 h): 1 | Score (histopathology liver necrosis severity score) (Sprague Dawley, rat, in vivo, ip, 100 mg/kg, 72 h): 1 | Liver Toxicity Necrosis Classification (rat, in vivo): no | Liver Necrosis (rat, in vivo, ip, 25 mg/kg): no | Liver Necrosis (rat, in vivo, ip, 100 mg/kg): no

aflatoxin B1
Liver Necrosis (rat, in vivo, ip, 1 mg/kg): Yes | Score (histopathology liver necrosis severity score) (rat, in vivo, ip, 1 mg/kg): 8

carboxy methyl cellulose
Liver Necrosis (rat, in vivo, ip, 30 mg/kg): no | Score (histopathology liver necrosis severity score) (rat, in vivo, ip, 30 mg/kg): 1

gentamicin
Liver Toxicity Necrosis Classification (at 72 h; dose 38): no | Liver Toxicity Necrosis Classification (at 72 h; dose 150): no | Liver Toxicity Necrosis Classification (compound-dose group at 72 h, dose 38): no | Liver Toxicity Necrosis Classification (compound-dose group at 72 h, dose 150): no | Liver Toxicity Necrosis Classification (compound-dose group at 72 h; dose 38): no | Liver Toxicity Necrosis Classification (compound-dose group at 72 h; dose 150): no | Liver Toxicity Necrosis Classification (compound-dosegroup at 72 h; dose 38): no | Liver Necrosis (rat, intraperitoneal, dose 38 mg/kg, 72 hours after treatment): no | Score (histopathology liver necrosis severity score) (rat, intraperitoneal, dose 38 mg/kg, 72 hours; 1 = not remarkable, 2 and higher increasing severity): 1 | Liver Necrosis (rat, intraperitoneal, dose 150 mg/kg, 72 hours after treatment): no | Score (histopathology liver necrosis severity score) (rat, intraperitoneal, dose 150 mg/kg, 72 hours; 1 = not remarkable, 2 and higher increasing severity): 1

lipopolysaccharide
Liver Toxicity Necrosis Classification (72 h, dose 8): yes | Liver Toxicity Necrosis Classification (72 h; dose 2): no | Liver Toxicity Necrosis Classification (compound-dose group at 72 h, dose 2): no | Liver Toxicity Necrosis Classification (compound-dose group at 72 h, dose 8): yes | Liver Toxicity Necrosis Classification (compound-dose group at 72 h; CCL4 1000, DMN 20, LPS 8): yes | Liver Toxicity Necrosis Classification (compound-dose group at 72 h; dose 2): no | Liver Toxicity Necrosis Classification (compound-dosegroup at 72 h; dose 2): no | Liver Toxicity Necrosis Classification (compound-dosegroup at 72 h; dose 8): yes | toxicity at the high dose (rat, high dose of Table 1, liver necrosis at 72 hours): produced toxicity | Liver Necrosis (rat, intraperitoneal, dose 2 mg/kg, 72 hours after treatment): no | Score (histopathology liver necrosis severity score) (rat, intraperitoneal, dose 2 mg/kg, 72 hours; 1 = not remarkable, 2 and higher increasing severity): 1 | Liver Necrosis (rat, intraperitoneal, dose 8 mg/kg, 72 hours after treatment): Yes | Score (histopathology liver necrosis severity score) (rat, intraperitoneal, dose 8 mg/kg, 72 hours; 1 = not remarkable, 2 and higher increasing severity): 6 | toxicity at the low dose (rat, low dose of Table 1, liver necrosis at 72 hours): not at the low dose

polyethylene glycol
Liver Necrosis (rat, in vivo, ip): no
